According to US20190083462A1, “PREVENTION OF NSAID ENTEROPATHY WITH MICROBIOTA-DERIVED TRYPTOPHAN-METABOLITE” (THE TEXAS A&M UNIVERSITY SYSTEM, priority 2016, published 2019):
Marks after values point to notes of the source that are not given here.

What was measured:
C57BL/6J mice = test: Histology and small intestinal morphometric measurements; type: in vivo
Procedure: Eight- to 10-week-old specific-pathogen-free C57BL/6J mice were purchased and allowed to acclimate for 2 weeks. Mice were fed standardized laboratory rodent diet and sterile water ad libitum. […] Mice were then rehoused on the basis of treatment group assignment, with 5 animals/group-cage. To induce NSAID enteropathy, mice in group 1 were gavaged once daily with indomethacin (5 mg/kg; for 7 days; Sigma Aldrich, St. Louis, Mo.) dissolved in dimethylysulfoxide (DMSO) (Sigma Aldrich, St. Louis, Mo.) and further diluted in phosphate buffered saline (PBS). […] All mice were gavaged with equal volumes (200 μL) and equal concentrations of DMSO (0.001%).
The slides were scored as previously described for intestinal inflammation (Jia Q, Lupton J R, Smith R, Weeks B R, Callaway E, Davidson L A, Kim W, Fan Y Y, Yang P, Newman R A, et al. Reduced colitis-associated colon cancer in Fat-1 (n-3 fatty acid desaturase) transgenic mice. Cancer Research 2008; 68:3985-91). Briefly, mucosal injury was determined by the following parameters scored from 0 (no evidence) to 3 (marked): mucosal ulceration, mucosal erosion, and presence of squamified epithelium. Inflammatory changes were scored similarly based on the following parameters: lymphocytic infiltration, plasma cell infiltration, and neutrophilic infiltration. Finally, an overall evidence of injury score was used to document total injury graded from 0 (none) to 4 (marked). Morphological parameters were obtained from digitally scanned slides using SPOT vr 5.0 software. Three sets of measurements from 3 separate sections were recorded for each animal by an observer blinded to treatment group. Measurements consisted of villus height, crypt depth, and submucosal mural thickness.

fecal microbiota = test: Fecal microbiota 16S rRNA sequencing (ANOSIM, SIMPER); type: in vivo, mice
[1] = tested on: fecal tryptophan metabolites; test: Fecal tryptophan metabolites by LC-MS; type: in vivo, mice; conditions: for Magnitude of change in fecal concentration between Days 0 and 7: group effect ↑
Excerpt: Eight- to 10-week-old specific-pathogen-free C57BL/6J mice were purchased and allowed to acclimate for 2 weeks. Mice were fed standardized laboratory rodent diet and sterile water ad libitum. Mice were randomly divided into the following 4 groups (n=5 mice/group): 1) NSAID (indomethacin); 2) indole; 3) NSAID+indole; and, 4) untreated controls. Mice were then rehoused on the basis of treatment group assignment, with 5 animals/group-cage. To induce NSAID enteropathy, mice in group 1 were gavaged once daily with indomethacin (5 mg/kg; for 7 days; Sigma Aldrich, St. Louis, Mo.) dissolved in dimethylysulfoxide (DMSO) (Sigma Aldrich, St. Louis, Mo.) and further diluted in phosphate buffered saline (PBS). Mice in group 2 received indole by gavage (20 mg/kg; once daily for 7 days; Sigma Aldrich, St. Louis, Mo.) dissolved in sterile water warmed to 55° C. Mice in group 3 received indole co-administered with indomethacin by gavage at the dosages described above. All mice were gavaged with equal volumes (200 μL) and equal concentrations of DMSO (0.001%).
Feces were collected daily by placing individual animals in sterile plastic cups that were RNase- and DNase-free until they passed feces. The mice were immediately returned to their home cages and the feces immediately flash frozen at −80° C. All animals were euthanized via CO2 asphyxiation on day 8 (i.e., after 7 days of treatment). The small intestine was harvested, opened longitudinally, rinsed with ice-cold PBS, and the distal ⅓ of the intestinal mucosa was scraped for tissue gene expression analysis. The remaining small intestine was fixed in 4% paraformaldehyde, Swiss-rolled, paraffin-embedded, and stained with hematoxylin and eosin. The spleen and mesenteric lymph nodes (MLN) were harvested, and immediately placed in ice cold RPMI-1640-c+10% fetal calf serum (FCS: Life Technologies, Carlsbad, Calif.), homogenized, and prepared as a single cell suspension for flow cytometric analysis as previously described (Wang N, Strugnell R, Wijburg O, Brodnicki T. Measuring bacterial load and immune responses in mice infected with Listeria monocytogenes. Journal of Visualized Experiments: JoVE 2011).
Metabolites from the fecal contents were extracted using a solvent-based method as previously described (Sridharan G V, Choi K, Klemashevich C, Wu C, Prabakaran D, Pan L B, Steinmeyer S, Mueller C, Yousofshahi M, Alaniz R C, et al. Prediction and quantification of bioactive microbiota metabolites in the mouse gut. Nature Communications 2014; 5:5492). Briefly, fecal pellets were homogenized using a homogenizer (Omni International) with equal volume of cold methanol and half volume of chloroform. The samples were then centrifuged at 10,000 g at 4° C. (Thermo Fisher Scientific) for 10 min. Supernatant was passed through a 70-μm sterile nylon cell strainer (Falcon) and 0.6 ml of ice cold water was added. The samples were vortex and centrifuged again at 10,000 g for 5 minutes. The upper phase and lower phase were collected and 400 μl of upper phase was dried to a pellet using a vacufuge (Eppendorf, Hauppauge, N.Y.), and then reconstituted in 50 μl of methanol/water (1:1, v/v). The samples were stored at −80° C. until analysis. Tryptophan metabolites in the samples were detected and quantified on a triple quadrupole linear ion trap mass spectrometer (3200 QTRAP, AB SCIEX, Foster City, Calif.) coupled to a binary pump HPLC (Prominence LC-20, Shimazu, Concord, Ontario, Canada).

[2] = unweighted Unifrac distance metric, day 7

With `COc1ccc2c(c1)c(CC(=O)O)c(C)n2C(=O)c1ccc(Cl)cc1` [NSAID, indomethacin] the microscopic pathology scores (C57BL/6J mice; Swiss-rolled H & E stained small intestinal sections, n=5/group) was “significant difference from control”, the “effect on the large intestine” value (C57BL/6J mice; data not shown) was “negligible effect” and the “ratio of villus height to crypt depth” value (C57BL/6J mice; small intestinal mucosa) was “significantly decreased”. The “members of the Bacteroidales S24-7 family” value (fecal microbiota; SIMPER, day 7 feces) was “gain”, the mean % abundance (fecal microbiota; family Unassigned, Other, day 7 feces) was 0.00317% and the mean % abundance (fecal microbiota; family c_Bacilli, Other, day 7 feces) was 0%. For the same compound, the mean % abundance (fecal microbiota; family o_Actinomycetales, f_Micrococcaceae, day 7 feces) was 0.00951%, the mean % abundance (fecal microbiota; family o_Anaeroplasmatales, f_Anaeroplasmataceae, day 7 feces) was 0.0317% and the mean % abundance (fecal microbiota; family o_Bacillales, Other, day 7 feces) was 0.019%. The mean % abundance (fecal microbiota; family o_Bacillales, f_Bacillaceae, day 7 feces) was 0.00317%, the mean % abundance (fecal microbiota; family o_Bacillales, f_Staphylococcaceae, day 7 feces) was 0.019% and the mean % abundance (fecal microbiota; family o_Bacteroidale, f_Bacteroidaceae, day 7 feces) was 0.00634%. The mean % abundance (fecal microbiota; family o_Bacteroidales, f_Prevotellaceae, day 7 feces) was 0.00317%, the mean % abundance (fecal microbiota; family o_Bacteroidales, f_S24-7, day 7 feces) was 81.2% and the mean % abundance (fecal microbiota; family o_Clostridiales, Other, day 7 feces) was 0.00317%. For the same compound, the mean % abundance (fecal microbiota; family o_Clostridiales, f_ (unnamed), day 7 feces) was 7.67%, the mean % abundance (fecal microbiota; family o_Clostridiales, f_Clostridiaceae, day 7 feces) was 1.68% and the mean % abundance (fecal microbiota; family o_Clostridiales, f_Dehalobacteriaceae, day 7 feces) was 0.00634%. It also gave a mean % abundance (fecal microbiota; family o_Clostridiales, f_Lachnosoiraceae, day 7 feces) of 1.31%, a mean % abundance (fecal microbiota; family o_Clostridiales, f_Ruminococcaceae, day 7 feces) of 3.53% and a mean % abundance (fecal microbiota; family o_Clostridiales, f_[Mogibacteriaceae], day 7 feces) of 0.00634%. The mean % abundance (fecal microbiota; family o_Coriobacteriales, f_Coriobacteriaceae, day 7 feces) was 0.0381%, the mean % abundance (fecal microbiota; family o_Cytophagales, f_Cytophagacae, day 7 feces) was 0% and the mean % abundance (fecal microbiota; family o_Erysipelotrichales, f_Erysipelotrichaceae, day 7 feces) was 0.136%. The mean % abundance (fecal microbiota; family o_Lactobacillales, f_Aerococcaceae, day 7 feces) was 0%, the mean % abundance (fecal microbiota; family o_Lactobacillales, f_Enterococcaceae, day 7 feces) was 0.171% and the mean % abundance (fecal microbiota; family o_Lactobacillales, f_Lactobacillaceae, day 7 feces) was 2.48%. It also gave a mean % abundance (fecal microbiota; family o_Lactobacillales, f_Streptococcaceae, day 7 feces) of 0%, a mean % abundance (fecal microbiota; family o_RF 39, f_ (unnamed), day 7 feces) of 1.62% and a mean % abundance (fecal microbiota; family o_Turicibacterales, f_Turicibacteraceae, day 7 feces) of 0.0412%. For the same compound, the “abundance of members of the phyla Firmicutes and Bacteroidetes” value (fecal microbiota; fecal 16S rRNA sequences, Day 0 vs Day 7) was “no significant difference”, the mean % abundance (fecal microbiota; mouse, in vivo) was 0% and the mean % abundance (fecal microbiota; order Unassigned, Other, day 7 feces) was 0.00317%. It also gave a mean % abundance (fecal microbiota; order c_Mollicutes, o_RF39, day 7 feces) of 1.62%, a mean % abundance (fecal microbiota; order o_Actinomycetales, day 7 feces) of 0.00951% and a mean % abundance (fecal microbiota; order o_Anaeroplasmatales, day 7 feces) of 0.0317%. For the same compound, the mean % abundance (fecal microbiota; order o_Bacillales, day 7 feces) was 0.0412%, the mean % abundance (fecal microbiota; order o_Bacteroidales, day 7 feces) was 81.2% and the mean % abundance (fecal microbiota; order o_Clostridiales, day 7 feces) was 14.2%. For the same compound, the mean % abundance (fecal microbiota; order o_Coriobacteriales, day 7 feces) was 0.0381%, the mean % abundance (fecal microbiota; order o_Cytophagales, day 7 feces) was 0% and the mean % abundance (fecal microbiota; order o_Erysipelotrichales, day 7 feces) was 0.136%. The mean % abundance (fecal microbiota; order o_Lactobacillales, day 7 feces) was 2.65%, the mean % abundance (fecal microbiota; order o_Turicibacterales, day 7 feces) was 0.0412% and the mean % abundance (fecal microbiota; order p_Firmicutes, c_Bacilli, Other, day 7 feces) was 0%. For the same compound, the mean % abundance (fecal microbiota; phylum Unassigned, Other, day 7 feces) was 0.00317%, the mean % abundance (fecal microbiota; phylum k_Bacteria, Other, day 7 feces) was 0% and the mean % abundance (fecal microbiota; phylum k_Bacteria, p_Acidobacteria, day 7 feces) was 0.00317%. The mean % abundance (fecal microbiota; phylum k_Bacteria, p_Actinobacteria, day 7 feces) was 0.0476%, the mean % abundance (fecal microbiota; phylum k_Bacteria, p_Bacteroidetes, day 7 feces) was 81.2% and the mean % abundance (fecal microbiota; phylum k_Bacteria, p_Cyanobacteria, day 7 feces) was 0.00634%. It also gave a mean % abundance (fecal microbiota; phylum k_Bacteria, p_Firmicutes, day 7 feces) of 17.1%, a mean % abundance (fecal microbiota; phylum k_Bacteria, p_Proteobacteria, day 7 feces) of 0.00317% and a mean % abundance (fecal microbiota; phylum k_Bacteria, p_Tenericutes, day 7 feces) of 1.66%. The mean % abundance (fecal microbiota; phylum k_Bacteria, p_Verrucomicrobia, day 7 feces) was 0%, the “Pairwise ANOSIM R-value vs Control” value (fecal microbiota; [2]) was 0.5487* and the “Pairwise ANOSIM R-value vs Indole” value (fecal microbiota; [2]) was 0.2615. For the same compound, the “Pairwise ANOSIM R-value vs NSAID + Indole” value (fecal microbiota; [2]) was 0.4444, the “Magnitude of change in fecal concentration between Days 0 and 7” value (shortened to “Magnitude of change”) ([1]; 5-Hydroxyindole) was 27.2 and the “Magnitude of change” value ([1]; 5-Hydroxytryptamine) was 13.9. The “Magnitude of change” value ([1]; Indole) was 6.7, the “Magnitude of change” value ([1]; Serotonin) was 1.6 and the “Magnitude of change” value ([1]; Tyramine) was 6.7. For the same compound, the “fecal indole concentrations relative to controls” value ([1]; feces) was “significantly more indole” and the “tyramine fecal concentration by treatment group” value ([1]; feces) was “significant increase”.
